Experimental findings from patent EP0233461B2, “4,5,6-Substituted-2-pyrimidinamines” (AMERICAN CYANAMID COMPANY, priority 1986, dated 1987) are described below.

Broadly, the IC50 is the midpoint of a concentration-inhibition curve.

Counter-ions that a name gives are not always drawn. Like-named read-outs stand apart in the source and are kept apart here.

The assay deals with human basophils. The experiment in a line: Inhibition of histamine release from immunologically stimulated human basophils. The assay is classed as cell-based. The note with it: concentration causing 50% inhibition of histamine release, by linear regression, active if IC50 ≦ 48 µM. The procedure, abridged:
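Leukocytes from sedimented human blood, washed in Tris-A and resuspended in Tris-ACM, were challenged with anti-IgE or antigen, with or without compound, for 60 min at 37 °C. Released histamine was measured fluorometrically after OPT derivatization and expressed as percent of total (perchloric acid lysate), corrected for spontaneous release.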

Turning to `Cc1cnc(Nc2ccc(N(C)C)cc2)nc1-c1ccco1` [N'-[4-(2-Furanyl)-5-methyl-2-pyrimidinyl]-N,N-dimethyl-1,4-benzenediamine], the IC50 (Homo sapiens, read-out: IC50) was found to be 6.1 µM.

In the case of `FC(F)(F)c1cccc(Nc2nccc(-c3ccccn3)n2)c1` [4-(2-Pyridinyl)-N-[3-(trifluoromethyl)phenyl]-2-pyrimidinamine], the IC50 (Homo sapiens, read-out: IC50) was found to be 2.9 µM.

Consider `Cc1cccc(Nc2nccc(-c3ccccn3)n2)c1` [N-(3-Methylphenyl)-4-(2-pyridinyl)-2-pyrimidinamine], for which the concentration for half-maximal inhibition (IC50) (Homo sapiens, read-out: IC50) was 0.7 µM.

`CCN(CC)c1ccc(Nc2nccc(-c3ccco3)n2)cc1` [N,N-Diethyl-N'-[4-(2-furanyl)-2-pyrimidinyl]-1,4-benzenediamine]: under “Homo sapiens, read-out: IC50”, the half-maximal inhibitory concentration (IC50) was determined as 3.4 µM.

As to `CCOC(=O)COc1ccc(Nc2nccc(-c3ccncc3)n2)cc1` [[4-[[4-Pyridinyl)-2-pyrimidinyl]amino]phenoxy]acetic acid, ethyl ester], where the note is “Homo sapiens, read-out: IC50”, the IC50 was found to be 5.8 µM.

Regarding `Fc1ccc(Nc2nccc(-c3ccco3)n2)cc1` [N-(4-Fluorophenyl)-4-(2-furanyl)-2-pyrimidinamine], where the note is “Homo sapiens, read-out: IC50”, the IC50 was found to be 13.3 µM.

Turning to `Fc1cccc(Nc2nccc(-c3cccnc3)n2)c1` [N-(3-Fluorophenyl)-4-(3-pyridinyl)-2-pyrimidinamine], the IC50 (Homo sapiens, read-out: IC50) was determined as 3.3 µM.

`CON=C(C)c1ccc(Nc2nccc(-c3cccnc3)n2)cc1` [1-[4-[[4-(3-Pyridinyl)-2-pyrimidinyl]amino]phenyl]ethanone, O-methyloxime]: the IC50 (Homo sapiens, read-out: IC50) came out at 5.1 µM.

Turning to `CCc1ccc(Nc2nccc(-c3ccc(C)nc3)n2)cc1` [N-(4-Ethylphenyl)-4-(6-methyl-3-pyridinyl)-2-pyrimidinamine], under “Homo sapiens, read-out: IC50”, the IC50 stood at 13.4 µM.

`COc1ccc(Nc2nccc(-c3cccnc3)n2)cc1` [N-(4-Methoxyphenyl)-4-(3-pyridinyl)-2-pyrimidinamine, sulfate] registered an IC50 (Homo sapiens) below 48 µM.

For `Oc1ccc(Nc2nccc(-c3cccnc3)n2)cc1` [4-[[4-(3-Pyridinyl)-2-pyrimidinyl]amino]phenol], the concentration for half-maximal inhibition (IC50) (Homo sapiens, read-out: IC50) was 5.1 µM.

`Cc1cc(-c2ccccn2)nc(Nc2ccc(N(C)C)cc2)n1` [N,N-Dimethyl-N'-[4-methyl-6-(2-pyridinyl)-2-pyrimidinyl]-1,4-benzenediamine]: the IC50 (Homo sapiens, read-out: IC50) amounted to 31.8 µM.

With `CC(=O)N(C)c1ccc(Nc2nccc(-c3ccncc3)n2)cc1` [N-Methyl-N-[4-[[4-(4-pyridinyl)-2-pyrimidinyl]amino]phenyl]acetamide], the IC50 (Homo sapiens, read-out: IC50) came out at 0.1 µM.

In the case of `Cc1cccc(Nc2nccc(-c3ccnc4ccccc34)n2)c1` [N-(3-Methylphenyl)-4-(4-quinolinyl)-2-pyrimidinamine], the IC50 (Homo sapiens, read-out: IC50) stood at 10.9 µM.

As for `c1cc(Nc2nccc(-c3ccncc3)n2)cc(-n2ccnc2)c1` [N-[3-(1H-Imidazol-1-yl)phenyl]-4-(4-pyridinyl)-2-pyrimidinamine], the IC50 (Homo sapiens, read-out: IC50) stood at 0.4 µM.

Take `Cc1cnc(Nc2ccccc2)nc1-c1ccco1` [4-(2-Furanyl)-5-methyl-N-phenyl-2-pyrimidinamine]: the IC50 (Homo sapiens, read-out: IC50) came out at 17.7 µM.

With `CC(=O)Nc1cccc(Nc2nccc(-c3ccncc3)n2)c1` [N-[3-[[4-(4-Pyridinyl)-2-pyrimidinyl]amino]-phenyl]acetamide], the IC50 (Homo sapiens, read-out: IC50) was determined as 2.1 µM.

`CC(N)c1ccc(Nc2nccc(-c3cccnc3)n2)cc1` (stereo not shown) [N-[4-[1-Aminoethyl)phenyl]-4-(3-pyridinyl)-2-pyrimidinamine, trihydrochloride]: the IC50 (Homo sapiens, read-out: IC50) turned out to be 0.8 µM.

`CC(C)c1ccc(Nc2nccc(-c3cccnc3)n2)cc1` [N-[4-(1-Methylethyl)phenyl]-4-(3-pyridinyl)-2-pyrimidinamine]: the concentration for half-maximal inhibition (IC50) (Homo sapiens, read-out: IC50) turned out to be 1.1 µM.

As for `Cc1cc(C)cc(Nc2ncc(C)c(-c3ccco3)n2)c1` [N-(3,5-Dimethylphenyl)-4-(2-furanyl)-5-methyl-2-pyrimidinamine], the half-inhibitory concentration (IC50) (Homo sapiens, read-out: IC50) was below 24 µM.

In the case of `FC(F)(F)c1cccc(Nc2nccc(-c3ccccn3)n2)c1` [4-(2-Pyridinyl)-N-[3-(trifluoromethyl)phenyl]-2-pyrimidinamine, sulfate], where the note is “sulfate”, 3 µM corresponded to half-maximal inhibition (IC50).

As to `Cc1cccc(Nc2nccc(-c3cnccn3)n2)c1` [N-(3-Methylphenyl)-4-pyrazinyl-2-pyrimidinamine], where the note is “Homo sapiens, read-out: IC50”, the IC50 came to 5.4 µM.
